Source: patent publication US12590062B2, “PD-1/PD-L1 inhibitors” (Gilead Sciences, Inc., priority 2017, dated 2026)

Columns and labels:
PD-L1 = molecular target: T1, PD-L1 (Homo sapiens, UniProt Q9NZQ7); assay: PD-L1/PD-L1 dimerization biochemical protein-protein interaction assay (ALPHA); format: binding; conditions: compound-induced PD-L1 dimerization, head prints '1 nM' (0.5 nM His-tagged PD-L1 and 0.5 nM FLAG-tagged PD-L1), read-out: AC50 PDL1 Dimer Alpha 1 nM
T1 construct: determine if they can specifically dimerize the extracellular domains of PD-L1
Outline: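 After 2 h at 25 °C with compound, His- and FLAG-tagged PD-L1 ECDs (each 0.5 nM final; 25 mM Hepes pH 7.4, 150 mM NaCl) were detected by sequential anti-His acceptor and anti-FLAG donor bead incubations. Dose-response curves fitted to four-parameter equation for AC50.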

PD-1/PD-L1 interaction = molecular target: T2, PD-1/PD-L1 interaction (Homo sapiens, UniProt Q9NZQ7); assay: PD-1/PD-L1 NFAT reporter co-culture assay; format: cell-based; conditions: Jurkat PD-1 NFAT-luciferase cells co-cultured with aAPC-PD-L1 CHO cells, 6 hrs at 37° C.; read-out: EC50 NFAT Luciferase
T2 construct: expressed in transfected cells; host or cells: CHO cells (aAPC-PD-L1) co-cultured with Jurkat cells overexpressing PD-1 and an NFAT-luciferase reporter
Outline: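 Compounds are scored by restoration of NFAT-luciferase signal in PD-1-expressing Jurkat cells cultured 6 h at 37 °C on CHO cells presenting anti-CD3 and PD-L1; EC50 values derive from four-parameter curve fitting.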

PD-1/PD-L1 = PD-1/PD-L1 (Homo sapiens, UniProt Q9NZQ7); assay: PD-1/PD-L1 biochemical protein-protein interaction assay (ALPHA); format: binding; conditions: 0.3 nM His tagged PD-L1, 2.5 nM biotinylated Fc-PD-1, 60 minutes at 25° C., read-out: IC50 PD-L1-PD-1 Alpha IC50-mono PD-L1-fcP-D1
Outline: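 His-PD-L1 ECD 0.3 nM + biotin-Fc-PD-1 2.5 nM (final), 25 mM Hepes pH 7.4, 150 mM NaCl, 3.4 mM EDTA; 60 min, 25° C; anti-His acceptor/streptavidin donor ALPHA beads; decreased signal = blocked binding; 4-parameter IC50.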

T2 sequence (Q9NZQ7 19-290): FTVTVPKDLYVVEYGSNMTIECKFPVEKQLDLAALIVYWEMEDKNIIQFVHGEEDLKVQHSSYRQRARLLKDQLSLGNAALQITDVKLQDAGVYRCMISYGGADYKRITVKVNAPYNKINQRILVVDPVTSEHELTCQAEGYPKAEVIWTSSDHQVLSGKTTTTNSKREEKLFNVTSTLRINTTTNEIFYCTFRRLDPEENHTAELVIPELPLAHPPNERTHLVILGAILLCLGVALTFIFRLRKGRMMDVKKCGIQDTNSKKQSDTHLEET
T1 sequence (Q9NZQ7 19-238 limits assumed): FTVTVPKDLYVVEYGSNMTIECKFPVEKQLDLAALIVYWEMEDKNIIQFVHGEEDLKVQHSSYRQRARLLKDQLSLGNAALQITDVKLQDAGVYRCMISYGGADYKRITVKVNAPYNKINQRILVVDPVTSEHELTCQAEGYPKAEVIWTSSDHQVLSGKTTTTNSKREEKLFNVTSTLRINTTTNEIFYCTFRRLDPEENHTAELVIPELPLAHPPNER
T1 sequence (Q9NZQ7 19-238 limits assumed): as above
Chain of PD-1/PD-L1 (Q9NZQ7 19-238 limits assumed): as above

SMILES	AC50 (PD-L1)	EC50 (PD-1/PD-L1 interaction)	IC50 (PD-1/PD-L1)
COc1nc(-c2cccc(-c3cccc(-c4ccc5cc(CN(C)C)[nH]c5c4)c3Cl)c2Cl)ccc1CNC[C@@H]1CCC(=O)N1 [Example 607]	296 nM	1730 nM	1.19 nM
Cc1c(COc2cc(OCc3cncc(C#N)c3)c(CNC[C@@H](O)CC(=O)O)cc2Cl)cccc1-c1cccc(-c2ccc(CNC[C@@H](O)CC(=O)O)c(-c3ccccc3)c2)c1C [Example 514]	359 nM	156 nM	0.735 nM
COc1nc(O[C@H]2CCc3c(-c4cccc(-c5ccc(CNC[C@@H]6CCC(=O)N6)cc5)c4Cl)cccc32)c(Cl)cc1CN[C@@](C)(CO)C(=O)O [Example 731]	16 nM	26 nM	0.064 nM
Cc1c(COc2cc(OCc3cncc(C#N)c3)c(CN[C@@](C)(CO)C(=O)O)cc2Cl)cccc1-c1cccc(-c2ccc3[nH]c([C@@H]4CCCN4)nc3c2)c1C [Example 299, (S)-2-((5-chloro-2-((5-cyanopyridin-3-yl)methoxy)-4-((2,2′-dimethyl-3′-(2-((S)-pyrrolidin-2-yl)-1H-benzo[d]imidazol-5-yl)-[1,1′-biphenyl]-3-yl)methoxy)benzyl)amino)-3-hydroxy-2-methylpropanoic acid]	162 nM	326 nM	0.761 nM
COc1nc(-c2cccc(-c3cccc(-c4ccc5c(c4)C[C@@H](N)C5)c3Cl)c2Cl)ccc1CN1CC2(CCC(=O)N2)C1 [Example 613]	158 nM	484 nM	1.38 nM

More lines, in order of falling EC50 (PD-1/PD-L1 interaction), values ahead:

AC50 (PD-L1)	EC50 (PD-1/PD-L1 interaction)	IC50 (PD-1/PD-L1)	SMILES
184 nM	652 nM	0.282 nM	Cc1c(COc2cc(OCc3cncc(C#N)c3)c(CNC[C@@H](O)CC(=O)O)cc2Cl)cccc1-c1cccc(-c2ccc([C@H](C)N(C)C)cc2)c1C [Example 380, (S)-4-((5-chloro-2-((5-cyanopyridin-3-yl)methoxy)-4-((4″-((S)-1-(dimethylamino)ethyl)-2,2′-dimethyl-[1,1′:3′,1″-terphenyl]-3-yl)methoxy)benzyl)amino)-3-hydroxybutanoic acid]
203 nM	373 nM	0.346 nM	Cc1c(COc2cc(OCc3cncc(C#N)c3)c(CN3CC[C@@H](O)C3)cc2Cl)cccc1-c1cccc(-c2ccc(CNC[C@@H](O)CC(=O)O)cc2)c1C [Example 308, (S)-4-(((3″-((2-chloro-5-((5-cyanopyridin-3-yl)methoxy)-4-(((R)-3-hydroxypyrrolidin-1-yl)methyl)phenoxy)methyl)-2′,2″-dimethyl-[1,1′:3′,1″-terphenyl]-4-yl)methyl)amino)-3-hydroxybutanoic acid]
254 nM	264 nM	0.105 nM	COc1nc(O[C@H]2CCc3c(-c4cccc5c4CC[C@@H]5Oc4ccc(CNC[C@@H](O)CC(=O)O)c(OCc5cncc(C#N)c5)n4)cccc32)c(Br)cc1CNC[C@@H](O)CC(=O)O [Example 678]
124 nM	242 nM	0.236 nM	COc1nc(-c2cccc(-c3cccc(-c4cnc5c(CNC[C@H]6CCC(=O)N6)cn(C)c5c4)c3Cl)c2Cl)ccc1CNC[C@H]1CCC(=O)N1 [Example 602]
154 nM	154 nM	0.112 nM	Cc1c(COc2cc(OCc3cncc(C#N)c3)c(CNC[C@@H](O)CC(=O)O)cc2Cl)cccc1-c1cccc(-c2ccc(CNC[C@@H](O)CC(=O)O)cc2)c1C [Example 384, (S)-4-((4-((4″-((((S)-3-carboxy-2-hydroxypropyl)amino)methyl)-2,2′-dimethyl-[1,1′:3′,1″-terphenyl]-3-yl)methoxy)-5-chloro-2-((5-cyanopyridin-3-yl)methoxy)benzyl)amino)-3-hydroxybutanoic acid]
101 nM	64 nM	0.058 nM	COc1nc(O[C@H]2CCc3c(-c4cccc5c4CC[C@@H]5Oc4nc(OCc5cncc(C#N)c5)c(CNC[C@@H](O)CC(=O)O)cc4Br)cccc32)c(Br)cc1CNC[C@@H](O)CC(=O)O [Example 679]
11.8 nM	39 nM	0.064 nM	COc1nc(O[C@H]2CCc3c(-c4cccc(-c5ccc(C6=NCCN6)c(OC)n5)c4Cl)cccc32)c(Br)cc1CN[C@](C)(CO)C(=O)O [Example 788]
